In test [1] the target is T1, PDE4B: The catalytic domain of human PDE4B from S152-S528 (Homo sapiens, UniProt Q07343).
T1 construct: His6 (N); thrombin cleavage site (N); made in house; host or cells: E. coli
In words: PDE4 IC50 determination by Scintillation Proximity Assay, PDE4B. The test is classed as biochemical. Particulars: Table 1B, Formula I compounds; read-out: IC50 PDE4B. As to the method: (§1) IC50s were determined by Scintillation Proximity Assay (SPA). The principle of the assay is based on the fact that cAMP, the PDE4 substrate, binds weakly to Yittrium Silicate SPA beads, whereas AMP, the product of PDE4 hydrolysis binds strongly. Thus, the extent of PDE4 hydrolysis of a sample of [^3H]cAMP can be measured because only the
(§2) [^3H]AMP produced by PDE4 hydrolysis will bind to the SPA beads and produce a scintillation signal.
(§3) PDE4 enzymes used for IC50 assays were:
(§4) Enzyme was stored in 50% glycerol at −20°.
(§5) In addition to the compound dilutions, each assay plate contained control wells with 1 μl of DMSO (to define 0% enzyme inhibition) or 1 μl of 200 μM roflumilast (to define 100% enzyme inhibition). […] Next, 10 μl of PDE4 enzyme in assay buffer was added and the plates were shaken for 30 s. at 1000 rpm to start the cAMP hydrolysis reaction. The concentrations of enzyme used were: PDE4B, 80 ng/ml; PDE4D, 4 ng/ml; PDE4B2, 2.5 μl of 50% glycerol stock/ml; PDE4D5 0.083 μl of 50% glycerol stock/ml. Assay plates were covered and incubated for 30 min. at 30°. […] The assay plates were covered with clear plastic film, centrifuged for 1 min. at 1000 RPM to settle the SPA beads, and counted using a Wallac TriLux scintillation counter. IC50's were calculated from the raw assay data by non-linear regression curve fitting using the Assay Explorer software package from MDL.
For orientation: In a scintillation proximity assay essentially only radioactivity close to the scintillant gives light.

Another test addresses T2, PDE4D (Homo sapiens, UniProt Q08499).
T2 construct: PDE4D: The catalytic domain of human PDE4B from S3 16-V692; His6 (N); thrombin cleavage site (N); made in house; host or cells: E. coli
In words: PDE4 IC50 determination by Scintillation Proximity Assay, PDE4D. The class given is biochemical. To be noted: Table 1B, Formula I compounds; read-out: IC50 PDE4D. The protocol: as §1, §2, §3, §4, §5

T1 sequence (Q07343 with tags, fused parts or gaps): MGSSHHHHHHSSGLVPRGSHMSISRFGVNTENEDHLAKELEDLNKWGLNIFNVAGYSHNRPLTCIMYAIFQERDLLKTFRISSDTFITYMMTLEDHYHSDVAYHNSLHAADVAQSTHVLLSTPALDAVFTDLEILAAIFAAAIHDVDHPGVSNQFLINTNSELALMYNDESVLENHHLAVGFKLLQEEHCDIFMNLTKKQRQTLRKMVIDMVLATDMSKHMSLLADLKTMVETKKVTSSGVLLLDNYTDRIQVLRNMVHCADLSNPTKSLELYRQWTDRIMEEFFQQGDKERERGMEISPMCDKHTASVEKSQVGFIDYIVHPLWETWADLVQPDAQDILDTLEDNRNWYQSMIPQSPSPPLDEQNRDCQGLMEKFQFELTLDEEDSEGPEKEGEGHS
T2 sequence (Q08499 380-756): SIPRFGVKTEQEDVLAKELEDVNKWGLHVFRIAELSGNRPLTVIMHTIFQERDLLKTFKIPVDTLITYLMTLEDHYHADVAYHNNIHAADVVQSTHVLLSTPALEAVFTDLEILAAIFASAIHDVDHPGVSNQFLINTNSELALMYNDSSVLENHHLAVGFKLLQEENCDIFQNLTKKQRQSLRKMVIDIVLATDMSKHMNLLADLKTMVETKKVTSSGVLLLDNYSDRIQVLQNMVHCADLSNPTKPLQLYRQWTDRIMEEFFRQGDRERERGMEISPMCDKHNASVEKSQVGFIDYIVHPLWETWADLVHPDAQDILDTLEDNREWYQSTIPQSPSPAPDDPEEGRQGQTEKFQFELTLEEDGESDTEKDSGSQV

A word on the IC50: it is the point on the concentration scale where inhibition reaches its midpoint. As for `Cc1onc(-c2ccccc2)c1C(=O)c1sc(NCCN2CCCCC2)c(C#N)c1N` [Compound 1-59, 4-Amino-5-(5-methyl-3-phenyl-isoxazole-4-carbonyl)-2-(2-piperidin-1-yl-ethylamino)-thiophene-3-carbonitrile], the IC50 (in test [1]; at PDE4D) was > 10 µM each time.
Consider `COC(=O)C(CC(C)C)Nc1sc(C(=O)c2c(-c3ccccc3)noc2C)c(N)c1C#N` (stereo not drawn) [Compound 1-60, 2-[4-Amino-3-cyano-5-(5-methyl-3-phenyl-isoxazole-4-carbonyl)-thiophen-2-ylamino]-4-methyl-pentanoic acid methyl ester], for which the IC50 in test [1] is < 10 µM; at PDE4D it was > 10 µM.
As to `N#Cc1c(NCCN2CCCCC2)sc(C(=O)c2ccccn2)c1N` [Compound 1-63, 4-Amino-2-(2-piperidin-1-yl-ethylamino)-5-(pyridine-2-carbonyl)-thiophene-3-carbonitrile], the IC50 (in test [1]; at PDE4D) was > 10 µM throughout.
Take `COC(=O)C(CC(C)C)Nc1sc(C(=O)c2ccccn2)c(N)c1C#N` (stereo not drawn) [Compound 1-64, 2-[4-Amino-3-cyano-5-(pyridine-2-carbonyl)-thiophen-2-ylamino]-4-methyl-pentanoic acid methyl ester]: the values for the IC50 (in test [1]; on PDE4D) were < 10 µM and > 10 µM, respectively.
Consider `COC(=O)C(CCSC)Nc1sc(C(=O)c2ccccn2)c(N)c1C#N` (stereo not drawn) [Compound 1-65, 2-[4-Amino-3-cyano-5-(pyridine-2-carbonyl)-thiophen-2ylamino]-4-methylsulfanyl-butyric acid methyl ester], for which the IC50 (in test [1]; at PDE4D) was > 10 µM throughout.
As for `N#Cc1c(NCCN2CCCCC2)sc(C(=O)c2ccc(-c3ccccn3)s2)c1N` [Compound 1-70, 4-Amino-2-(2-piperidin-1-yl-ethylamino)-5-(5-pyridin-2-yl-thiophene-2-carbonyl)-thiophene-3-carbonitrile], the IC50 (in test [1]; at PDE4D) was < 10 µM in each case.
For the molecule `COC(=O)C(CC(C)C)Nc1sc(C(=O)c2ccc(-c3ccccn3)s2)c(N)c1C#N` (stereo not drawn) [Compound 1-72, 2-[4-Amino-3-cyano-5-(5-pyridin-2-yl-thiophene-2-carbonyl)-thiophen-2-ylamino]-4-methyl-pentanoic acid methyl ester], the 50% inhibitory concentration (IC50) (in test [1]; on PDE4D) was < 10 µM each time.
`COC(=O)c1ccccc1Nc1sc(C(=O)c2ccc(-c3ccccn3)s2)c(N)c1C#N` [Compound 1-73, 2-[4-Amino-3-cyano-5-(5-pyridin-2-yl-thiophene-2-carbonyl)-thiophen-2-ylamino]-benzoic acid methyl ester]: the IC50 (in test [1]; at PDE4D) was < 10 µM in each case.
Turning to `N#Cc1c(Nc2ccc(Oc3ccccc3)cc2)sc(C(=O)c2ccc(-c3ccccn3)s2)c1N` [Compound 1-76, 4-Amino-2-(4-phenoxy-phenylamino)-5-(5-pyridin-2-yl-thiophene-2-carbonyl)-thiophene-3-carbonitrile], the IC50 is < 10 µM in test [1] and > 10 µM on PDE4D.
`N#Cc1c(NC2CCOC2=O)sc(C(=O)c2ccc(-c3ccccn3)s2)c1N` (stereo not drawn) [Compound 1-79, 4-Amino-2-(2-oxo-tetrahydro-furan-3-ylamino)-5-(5-pyridin-2-yl-thiophene-2-carbonyl)-thiophene-3-carbonitrile]: the IC50 (in test [1]; on PDE4D) was < 10 µM throughout.
For the molecule `N#Cc1c(NCC2CCCO2)sc(C(=O)c2ccc(-c3ccccn3)s2)c1N` (stereo not drawn) [Compound 1-80, 4-Amino-5-(5-pyridin-2-yl-thiophene-2-carbonyl)-2-[(tetrahydro-furan-2-ylmethyl)-amino]-thiophene-3-carbonitrile], the IC50 (in test [1]; at PDE4D) was < 10 µM in each case.
Take `COC(=O)C(CC(C)C)Nc1sc(C(=O)c2cc(-c3ccc(Cl)c(Cl)c3)no2)c(N)c1C#N` (stereo not drawn) [Compound 1-84, 2-{4-Amino-3-cyano-5-[3-(3,4-dichloro-phenyl)-isoxazole-5-carbonyl]-thiophen-2-ylamino}-4-methyl-pentanoic acid methyl ester]: the IC50 (in test [1]; on PDE4D) was > 10 µM each time.
`COC(=O)C(CC(C)C)Nc1sc(C(=O)c2ccc(C)cc2C)c(N)c1C#N` (stereo not drawn) [Compound 1-87, 2-[4-Amino-3-cyano-5-(2,4-dimethyl-benzoyl)-thiophen-2-ylamino]-4-methyl-pentanoic acid methyl ester]: the IC50 (in test [1]; at PDE4D) was > 10 µM each time.
For `COC(=O)C(CCSC)Nc1sc(C(=O)c2ccc(C)cc2C)c(N)c1C#N` (stereo not drawn) [Compound 1-88, 2-[4-Amino-3-cyano-5-(2,4-dimethyl-benzoyl)-thiophen-2-ylamino]-4-methylsulfanyl-butyric acid methyl ester], the IC50 in test [1] is < 10 µM; at PDE4D it was > 10 µM.
For `Cc1ccc(C(=O)c2sc(Nc3ccc(C(=O)NC4CCOC4=O)cc3)c(C#N)c2N)c(C)c1` (stereo not drawn) [Compound 1-89, 4-[4-Amino-3-cyano-5-(2,4-dimethyl-benzoyl)-thiophen-2-ylamino]-N-(2-oxo-tetrahydro-furan-3-yl)-benzamide], in that order: < 10 µM and < 10 µM.
On to `Cc1ccc(C(=O)c2sc(NC3CCOC3=O)c(C#N)c2N)c(C)c1` (stereo not drawn) [Compound 1-91, 4-Amino-5-(2,4-dimethyl-benzoyl)-2-(2-oxo-tetrahydro-furan-3-ylamino)-thiophene-3-carbonitrile], for which the IC50 in test [1] is < 10 µM; at PDE4D it was > 10 µM.
For `COc1ccc(OC)c(C(=O)c2sc(Nc3ccccc3F)c(C#N)c2N)c1` [Compound 1-92, 4-Amino-5-(2,5-dimethoxy-benzoyl)-2-(2-fluoro-phenylamino)-thiophene-3-carbonitrile], in that order: < 10 µM and < 10 µM.
As to `COc1ccc(Nc2sc(C(=O)c3cc(OC)ccc3OC)c(N)c2C#N)cc1` [Compound 1-93, 4-Amino-5-(2,5-dimethoxy-benzoyl)-2-(4-methoxy-phenylamino)-thiophene-3-carbonitrile], the 50% inhibitory concentration (IC50) (in test [1]; on PDE4D) was < 10 µM each time.
As to `COc1ccc(OC)c(C(=O)c2sc(Nc3ccc4c(c3)CCC4)c(C#N)c2N)c1` [Compound 1-94, 4-Amino-5-(2,5-dimethoxy-benzoyl)-2-(indan-5-ylamino)-thiophene-3-carbonitrile], the IC50 (in test [1]; at PDE4D) was < 10 µM each time.
Take `COC(=O)C(CCSC)Nc1sc(C(=O)c2cc(OC)ccc2OC)c(N)c1C#N` (stereo not drawn) [Compound 1-95, 2-[4-Amino-3-cyano-5-(2,5-dimethoxy-benzoyl)-thiophen-2-ylamino]-4-methylsulfanyl-butyric acid methyl ester]: the concentration for half-maximal inhibition (IC50) in test [1] was < 10 µM; on PDE4D, > 10 µM.
As for `COc1ccc(OC)c(C(=O)c2sc(Nc3ccc(Oc4ccccc4)cc3)c(C#N)c2N)c1` [Compound 1-96, 4-Amino-5-(2,5-dimethoxy-benzoyl)-2-(4-phenoxy-phenylamino)-thiophene-3-carbonitrile], the IC50 in test [1] is < 10 µM; at PDE4D it was > 10 µM.
For `COc1ccc(OC)c(C(=O)c2sc(Nc3ccc(C(=O)NC4CCOC4=O)cc3)c(C#N)c2N)c1` (stereo not drawn) [Compound 1-97, 4-[4-Amino-3-cyano-5-(2,5-dimethoxy-benzoyl)-thiophen-2-ylamino]-N-(2-oxo-tetrahydro-furan-3-yl)-benzamide], in that order: > 10 µM and < 10 µM.
As for `COc1ccc(OC)c(C(=O)c2sc(NC3CCOC3=O)c(C#N)c2N)c1` (stereo not drawn) [Compound 1-98, 4-Amino-5-(2,5-dimethoxy-benzoyl)-2-(2-oxo-tetrahydro-furan-3-ylamino)-thiophene-3-carbonitrile], the 50% inhibitory concentration (IC50) in test [1] was < 10 µM; on PDE4D, > 10 µM.
Consider `COc1ccc(C(=O)c2sc(Nc3ccccc3F)c(C#N)c2N)c(OC)c1` [Compound 1-100, 4-Amino-5-(2,4-dimethoxy-benzoyl)-2-(2-fluoro-phenylamino)-thiophene-3-carbonitrile], for which the IC50 (in test [1]; on PDE4D) was < 10 µM throughout.
With `COc1ccc(Nc2sc(C(=O)c3ccc(OC)cc3OC)c(N)c2C#N)cc1` [Compound 1-101, 4-Amino-5-(2,4-dimethoxy-benzoyl)-2-(4-methoxy-phenylamino)-thiophene-3-carbonitrile], the IC50 (in test [1]; on PDE4D) was < 10 µM throughout.
As for `COc1ccc(C(=O)c2sc(Nc3ccc4c(c3)CCC4)c(C#N)c2N)c(OC)c1` [Compound 1-102, 4-Amino-5-(2,4-dimethoxy-benzoyl)-2-(indan-5-ylamino)-thiophene-3-carbonitrile], the IC50 (in test [1]; on PDE4D) was < 10 µM in each case.
On to `COc1ccc(C(=O)c2sc(Nc3ccc(C(=O)NC4CCOC4=O)cc3)c(C#N)c2N)c(OC)c1` (stereo not drawn) [Compound 1-103, 4-[4-Amino-3-cyano-5-(2,4-dimethoxy-benzoyl)-thiophen-2-ylamino]-N-(2-oxo-tetrahydro-furan-3-yl)-benzamide], for which the IC50 (in test [1]; on PDE4D) was > 10 µM each time.
